The record followed here is publication PMC3703888, “Integration of Different “-omics” Technologies Identifies Inhibition of the IGF1R-Akt-mTOR Signaling Cascade Involved in the Cytotoxic Effect of Shikonin against Leukemia Cells” (Evidence-based Complementary and Alternative Medicine : eCAM, 2013).

“Also recorded” adds a separate entry of the source.

The test system of one experiment is U937 cells. Put plainly: Stable-isotope dimethyl labeling quantitative proteomics. The class given is cell-based. As to conditions: 0.3 μM shikonin (IC50), 24 h vs DMSO. How it is done: To examine quantitative changes in the proteome of U937 leukemia cells after shikonin treatment, the dimethyl labeling proteomics analysis was performed. Briefly, 5 × 10^6 U937 cells were seeded in 10 mL RPMI 1640 medium in a 25 cm^2 culture flask. Subsequently, cells were treated with 0.3 μM shikonin (IC50) or DMSO as solvent control for 24 h. After incubation cells were washed with PBS and protein extraction was performed using the M-PER Mammalian Protein Extraction Reagent (Thermo Scientific, Germany) containing a protease inhibitor cocktail (Roche, Germany), cells were incubated with the extraction reagent for 40 min at 4°C. After incubation, cellular debris was removed by centrifugation at 14000 ×g for 15 min. Supernatants were transferred into new tubes and an acetone precipitation of the proteins was performed. After precipitation, the acetone was removed and the protein pellet in each of the tube was further diluted to 1 μg/μL with 50 mM TEABC and reduced with 5 mM TCEP for 1 h at 37°C, followed by alkylation using 2 mM MMTS for 45 min at room temperature. For the proteolytic digestion, the modified tube-gel digestion protocol was applied and the detergent residue was checked using the method described previously. Two 200 μg proteolytic protein mixtures from DMSO and shikonin treated cells were first dissolved in 200 μL of 100 mM TEABC (pH 8.5) and, respectively, mixed with 20 μL of formaldehyde and formaldehyde-13C, d2 (4%, diluted with H2O). After vortexing (5 min) and centrifugation, each of the sample solutions was mixed with 20 μL of 600 mM sodium cyanoborohydride solution. The sample solutions were vortexed (10 min) and centrifuged again and then allowed to react for 30 min at 25°C. To quench the reaction, ammonium hydroxide (7% in water, 10 μL) was added to each sample solution. Finally, 16 μL of formic acid was added to acidify each of the sample solutions and two samples were further combined for strong cation exchange (SCX) fractionation.
For SCX fractionation, the buffer SCX-A (5 mM KH2PO4 in 25% ACN at pH 3) and SCX-B (5 mM KH2PO4 and 350 mM KCl in 25% ACN at pH 3) were used as the mobile phase. The peptide mixtures were reconstituted in buffer SCX-A and then loaded into a PolySULFOETHYL A column (200 × 2.1 mm, 5 μm, 300Å, PolyLC, Columbia, MD) for 10 min at the flow rate of 0.2 mL/min. Peptides were fractionated using a 75 min gradient from 0 to 100% of buffer SCX-B. Fractions were collected every three minutes from the retention time of 10 to 55 min using a fraction collector (BioFrac Fraction Collector, BioRad Laboratories, Hercules, CA). The peptide mixtures in each of the fraction were further analyzed by the LC-MS/MS.
LC-MS/MS analysis was performed with a nanoUHPLC system (nanoACQUITY UPLC, Waters, Millford, MA) coupled online to the nanoelectrospray source of a hybrid quadrupole time-of-flight mass spectrometer (Q-TOF-MS) (SYNAPT HDMS G2, Waters, Manchester, UK). For LC-MS/MS analysis, water with 0.1% FA and ACN with 0.1% FA were used as the mobile phase. The sample was injected into a trap column (Symmetry C18, 5 μm, 180 μm × 20 mm, Waters, Milford, MA) and separated online with a reverse phase column (BEH C18, 1.7 μm, 75 μm × 250 mm, Waters, Milford, MA) at the flow rate of 300 nL/min using either a 95 min gradient with 5–90% ACN/water ratio. The mass spectrometry instruments were all operated in the positive ion mode, and data-dependent acquisition methods were applied for all experiments. The acquisition settings were set to one full MS scan (350–1600 m/z) with a scan time of 1 second and switched to six product ion scans (50–1900 m/z) with 0.4 second scan time when a precursor ion charge was 2+, 3+, or 4+, and the intensity was higher than 200 counts. The data files generated from LC-MS/MS were processed by UniQua and further analyzed by the MASCOT and Trans Proteomics Pipeline (TPP) 1 version 4.4 rev. 1, and the details and criteria of data processing were described previously.

For another experiment, the system named is p-ribosomal protein S6. Put plainly: FlowCellect PI3K-mTOR signaling cascade assay (flow cytometry), p-ribosomal protein S6. The class given is cell-based. As to conditions: U937 cells, 0.3 μM shikonin, 24 h. From the text: The FlowCellect PI3K-mTOR signaling cascade assay kit (Merck Millipore, Germany) was used to analyze the effect of shikonin on the PI3K-mTOR signaling pathway. The assay is based on two directly conjugated phospho-specific signaling antibodies against phosphorylated Akt and phosphorylated ribosomal S6 protein, which are both important signaling nodes of the mTOR cascade. The phosphorylation of Akt is indicative of the upstream PI3K signaling, marking the cells initiation into proliferation or cell survival. Phosphorylated-ribosomal S6 protein is indicative of downstream mTOR and p70S6K signaling leading to protein translation. The assay was performed according to the manufacture's protocol. Briefly, 1.5 × 10^6 U937 cells were treated with 0.3 μM shikonin or DMSO solvent control and incubated for 24 h. Subsequently, cells were fixed on ice for 20 min using the supplied fixation buffer. […] Subsequently, cells were measured in a LSR-Fortessa FACS analyzer (Becton-Dickinson, Germany) and shikonin fluorescence was compensated for the respective channels. For each sample, 1 × 10^4 cells were counted. The PerCP signal was measured with 488 nm excitation and detected using a 670/30 nm bandpass filter. The Alexa Fluor 488 signal was analyzed with 488 nm excitation and detected using a 530/30 nm bandpass filter. […] Cytographs were analyzed using FlowJo software (Celeza, Switzerland). […]
Background: A flow cytometer gives signals particle by particle.

`CC(C)=CC[C@@H](O)C1=CC(=O)c2c(O)ccc(O)c2C1=O` [shikonin]: in the experiment with U937 cells, the “FC protein 5′-Nucleotidase domain-containing protein 2” value is given as −5.4, the “FC protein 60S ribosomal protein L24” value is −7.5, the “FC protein ATP-dependent RNA helicase DDX3Y” value was −4.3 and the “FC protein Cell differentiation protein RCD1 homolog” value is “+10.0”. Besides, in the experiment on U937 cells, the “FC protein Golgi phosphoprotein 3” value is listed as −3.5, the “FC protein Heme oxygenase 1” value is listed as “+14.3”, the “FC protein Heterogeneous nuclear ribonucleoprotein H2” value is −4.5 and the “FC protein Hexokinase-1” value is −20.5. Moreover, in the experiment with U937 cells, the “FC protein Histone H2B type 2-E” value is reported as “+7.1”; the “FC protein Histone H4” value is on record as “+11.1”; the “FC protein LIM domain and actin-binding protein 1” value was “+6.7”; the “FC protein Leucine-rich repeat-containing protein 58” value is recorded as −3.5. Also, in the experiment with U937 cells, the “FC protein Mannose-6-phosphate isomerase” value is on record as “+7.7”, the “FC protein Methylosome protein 50” value was −4.0, the “FC protein Neuronal-specific septin-3” value is recorded as “+6.7” and the “FC protein Rho GTPase-activating protein 4” value is on record as −3.1. Also, in the experiment with U937 cells, the “FC protein Schlafen family member 11” value is given as “+6.7”, the “FC protein Sorting nexin-17” value is recorded as “+9.1”, the “FC protein Vacuolar protein sorting-associated protein 11 homolog” value was −20.0 and the “FC protein WD repeat-containing protein 3” value was “+12.1”. In the experiment with p-ribosomal protein S6, the “Phosphorylation of ribosomal protein S6” value is “remained almost unchanged; also recorded: no effect”.
